Laboratory results: patent US12275685B2, “Oligo-benzamide analogs and their use in cancer treatment” (Board of Regents, The University of Texas System, priority 2018, dated 2025)
pIC50: −log10 of the molar value. Entries after “also recorded” stand apart in the source; their conditions may differ.

How the values were obtained:
[1] = tested on: estrogen receptor-positive, estrogen receptor-negative and therapy resistant ERMT cells; assay: MTT assay of TK41 on breast cancer cells; assay type: cell-based
Procedure: FIGS. 2A-2C show the potency of TK41 (IC50 from 50-500 nM) on estrogen receptor-positive (FIG. 2A), estrogen receptor-negative (FIG. 2B) and therapy resistant ERMT (FIG. 2C) cells determined by MTT assay.

TNBC PDX tumors = assay: TNBC patient derived xenografts (PDX); assay type: in vivo, mice; conditions: 10 mg/kg/day oral
Procedure: FIGS. 7A-7C show effect of TK41 in triple negative breast cancer in patient derived xenografts. TNBC patient derived xenografts (n=6) were established in nude mice and treated with vehicle (circle markers) or 10 mg/kg/day/oral ERX-41 (i.e., TK41; square markers).
FIGS. 32A-C show established breast PDX tumors treated either with vehicle (circles) or ERX-41 (squares). Tumor volume is graphed (left), distribution of tumor weights at necropsy (middle panel). *p<0.05; […].
FIGS. 35A-P: ERX-41 is potent against TNBC in vivo. (FIG. 35A) Following establishment of subcutaneous MDA-MB-231 xenograft tumors (200 mm^3), 10 mg/kg single dose ERX-41 was administered either by oral or intraperitoneal route. The tumor was harvested 0, 0, 5, 1, 5, 3, 6 and 24 h after drug administration and the drug levels assayed by LC-MS/MS and graphed. (FIGS. 35B-E) Following establishment of MDA-MB-231 xenografts in mammary fat pad in vivo (100 mm^3 size), daily administration of 10 mg/kg ERX-41 or vehicle control (N=8 each group) was initiated. Tumor volumes were measured using digital calipers and graphed (FIG. 35B). Tumor weights (FIG. 35C), body weights (FIG. 35D) and extirpated tumors (FIG. 35E) at end of study are also shown. […] Tumor volumes were measured using digital calipers and graphed (FIG. 35F) along with tumor weights (FIG. 35G) and body weights (FIG. 35H). […]

[2] = tested on: 22 human preclinical TNBC cell line models; assay: CellTiter-Glo cell viability assay in TNBC cell lines; assay type: cell-based; conditions: 22 TNBC cell lines, read-out: IC50, CellTiter-Glo cell viability assays
From the text: FIGS. 34A-C: Dose response curve of ERX-41 in multiple TNBC. cell lines using WST-1 assays (FIG. 34A) and CellTiter-Glo assays (FIG. 34B). […] Quantification of the number of dead cells over time seen with live cell imaging in MDAMB-231 and HMEC cells is shown.
To evaluate the generalizability of the inventors' findings, they evaluated ERX-41 in a large number of TNBC and ERa-positive cell lines.

TNBC cells with LIPA KO = assay: Response of LIPA knockout TNBC cells, CellTiter-Glo; assay type: cell-based; conditions: LIPA KO clones
From the text: FIGS. 37A-J: The molecular target of ERX-41 in TNBC is LIPA. […] (FIG. 37B) Knockout clones of LIPA, ACACA, TMEM208, SOAT1 and ARID1A were generated in MDA-MB-231 cells and evaluated for response to ERX-41 using doseresponse curves using CellTiter-Glo assays in vitro. (FIGS. 37C-D) Effect of knockout of LIPA in SUM-159 (FIG. 37C) and MDA-MB436 (FIG. 37D) on dose response curve to ERX-41 using CellTiter-Glo assays in vitro. (FIGS. 37E-F) Dose response curves of SUM-159 parental cells and clones with LIPA KO to thapsigargin (FIG. 37E) and paclitaxel (FIG. 37F). (FIGS. 37G-H) Live cell imaging studies with SYTOX Green to examine ability of 1 μM ERX-41 to induce cell death in parental SUM-159 and SUM-159 clones with LIPA KO, with quantitation (FIG. 37G) and time-lapsed photomicrographs at 0 h and 30 h ((FIG. 37H). (FIGS. 37I-J) SCID mice were implanted with either parental SUM-159 or SUM-159 clones with LIPA KO (n=6, each group) and tumors were allowed to establish (150 mm^3). Following daily intraperitoneal administration of 10 mg/kg ERX-41, tumor sizes were measured and graphed (FIG. 37I), along with mice body weights (FIG. 37J). *p<0.05. **p<0.01; ***p<0.001.
The molecular target of ERX-41 in TNBC is LIPA. […] Knockout clones of LIPA, SLC5A3, SMAP2, TMEM208, SOAT1 and ARID1A were generated in multiple TNBC cells and evaluated for response to ERX-41.

CC(C)COc1cc(C(=O)Nc2ccc(C(=O)N[C@H]3CC[C@H](C)CC3)cc2OCC(C)C)ccc1NC(=O)c1ccc([N+](=O)[O-])c(OCCO)c1 [TK41]
pIC50 ([1]; ER-positive, ER-negative and therapy resistant ERMT cells, MTT assay): 6.30 to 7.30 | effect on endocrine therapy resistant breast cancer cells ([1]; endocrine therapy resistant breast cancer cells): very effective | growth of TNBC PDX tumors (TNBC PDX tumors): significantly decreased the growth | growth of TNBC PDX tumors (TNBC PDX tumors; listed as ERX-41): significantly decreased the rates of growth; also recorded: has activity against TNBC PDX tumors | pIC50 [2]: > 6.60 | cytotoxic response after knockout of LIPA (TNBC cells with LIPA KO): abrogate the cytotoxic response
